Laboratory results published in ChEMBL document CHEMBL1201862, “PubChem BioAssay data set” (2004).
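Dose response: 5 concentrations. Exposure: 48 h. Format: 96-well plates. Endpoint: linear interpolation; highest concentration if not reached. GI50 is the concentration that inhibits growth by half.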 The source made the active and inactive calls. Rule as the data show it: active = GI50 up to about 1.1 µM and inactive = higher.

Tests used:
Experiment in all cases: NCI-60 cell line screen, 48 h
[1] = test system: MDA-MB-231
[2] = test system: MCF7
[3] = test system: DU-145
[4] = test system: IGROV-1
[5] = test system: NCI-H23
[6] = test system: MDA-N
[7] = test system: U-251
[8] = test system: OVCAR-3
[9] = test system: SK-MEL-5
[10] = test system: SK-OV-3
[11] = test system: NCI-H460
[12] = test system: RXF 393
[13] = test system: SF-295
[14] = test system: NCI-H226
[15] = test system: CCRF-CEM
[16] = test system: 786-0
[17] = test system: HCT-15
[18] = test system: UACC-62
[19] = test system: COLO 205

SMILES | GI50 [1] | GI50 [2] | GI50 [3] | GI50 [4] | GI50 [5] | GI50 [6] | GI50 [7] | GI50 [8] | GI50 [9] | GI50 [10] | GI50 [11] | GI50 [12] | GI50 [13] | GI50 [14] | GI50 [15] | GI50 [16] | GI50 [17] [µM] | GI50 [18] | GI50 [19]
O=C1/C(=C(/Br)I)c2ccccc2-c2ccccc21 | 6.14 µM (inactive) | 8.85 µM (inactive) | 16.3 µM (inactive) | 13.2 µM (inactive) | 18.1 µM (inactive) | 2.95 µM (inactive) | 12.6 µM (inactive) | 9.98 µM (inactive) | 16 µM (inactive) | 15.7 µM (inactive) | 17.8 µM (inactive) | 3.21 µM (inactive) | 17 µM (inactive) | 18.8 µM (inactive) | 2.16 µM (inactive) | 3.34 µM (inactive) | 4.34 | 7.19 µM (inactive) | 2.04 µM (inactive)
COC1(OC)C[C@H](C)[C@@]23O[C@]24c2cc(O)c5c(c2N[C@H]3C#C/C=C\C#C[C@]14O)C(=O)c1ccccc1C5=O | 0.0142 µM (active) | 0.005 µM (active) | 0.005 µM (active) | 0.0148 µM (active) | 0.005 µM (active) | 0.00597 µM (active) | 0.005 µM (active) | 0.0431 µM (active) | 0.005 µM (active) | < 0.001 µM (active) | < 0.001 µM (active) | 0.005 µM (active) | 0.005 µM (active) | 0.005 µM (active) | < 0.001 µM (active) | 0.005 µM (active) | 0.005 | 0.005 µM (active) | 0.005 µM (active)
Cc1ccc(/N=N/C(=N/c2ccccc2)c2ccc(N(CCC#N)CCC#N)cc2)cc1 | 22.1 µM (inactive) | 22.1 µM (inactive) | 36.6 µM (inactive) | 20.3 µM (inactive) | 18.3 µM (inactive) | 31.6 µM (inactive) | 15.8 µM (inactive) | 20.1 µM (inactive) | 22.9 µM (inactive) | 30.8 µM (inactive) | 20.1 µM (inactive) | 22.3 µM (inactive) | 27.2 µM (inactive) | 27.7 µM (inactive) | 35.6 µM (inactive) | 37.8 µM (inactive) | 44.8 | 21.8 µM (inactive) | 21.7 µM (inactive)
COC(=O)[C@]12CCC(C)(C)C[C@H]1C1=CC[C@@H]3[C@@]4(C)CC[C@H](OC5OC(CO)C(O)C(O)C5OC5OC(CO)C(O)C(O)C5O)C(C)(C)[C@@H]4CC[C@@]3(C)[C@]1(C)CC2 (stereo partly drawn) | 2.65 µM (inactive) | 12 µM (inactive) | 12 µM (inactive) | 14.4 µM (inactive) | 7.08 µM (inactive) | 5.43 µM (inactive) | 13.2 µM (inactive) | 10.6 µM (inactive) | 15.8 µM (inactive) | 20.5 µM (inactive) | 14.5 µM (inactive) | 5.75 µM (inactive) | 14.2 µM (inactive) | 3.43 µM (inactive) | 15.7 µM (inactive) | 11.2 µM (inactive) | 12.5 | 10.5 µM (inactive) | 3.09 µM (inactive)
C=CCC(CCC(C)=O)(C(=O)OCC)C(=O)OCC | > 100 µM (inactive) | > 100 µM (inactive) | > 100 µM (inactive) | > 100 µM (inactive) | > 100 µM (inactive) | > 100 µM (inactive) | > 100 µM (inactive) | > 100 µM (inactive) | > 100 µM (inactive) | > 100 µM (inactive) | > 100 µM (inactive) | > 100 µM (inactive) | > 100 µM (inactive) | > 100 µM (inactive) | > 100 µM (inactive) | > 100 µM (inactive) | > 100 | > 100 µM (inactive) | > 100 µM (inactive)
O=C1c2ccccc2C(=O)c2c(NCC3CO3)ccc(NCC3CO3)c21 (stereo not drawn) | 3.3 µM (inactive) | 0.112 µM (active) | 3.58 µM (inactive) | 3.78 µM (inactive) | 1.49 µM (inactive) | 1.3 µM (inactive) | 1.65 µM (inactive) | 4.54 µM (inactive) | 1.68 µM (inactive) | 10.4 µM (inactive) | 2.39 µM (inactive) | 2.21 µM (inactive) | 3.59 µM (inactive) | 8.59 µM (inactive) | < 0.01 µM (active) | 0.766 µM (active) | 3.47 | 1.08 µM (active) | 4.99 µM (inactive)
NCCCCNCCCNC(=O)CNC(=O)CC(O)C(N)CCCC(NC(=O)C(CN)NC(=O)C(O)CNC(=O)CC(N)c1ccc(O)cc1)C(=O)O (stereo not drawn) | > 10 µM (inactive) | > 10 µM (inactive) | > 10 µM (inactive) | > 10 µM (inactive) | > 10 µM (inactive) | > 10 µM (inactive) | > 10 µM (inactive) | > 10 µM (inactive) | > 10 µM (inactive) | > 10 µM (inactive) | > 10 µM (inactive) | > 10 µM (inactive) | > 10 µM (inactive) | > 10 µM (inactive) | > 10 µM (inactive) | > 10 µM (inactive) | > 10 | > 10 µM (inactive) | > 10 µM (inactive)
O=S(=O)(O)c1cc(S(=O)(=O)O)c2c(/N=N/c3cccc4ccccc34)c(O)ccc2c1 | > 100 µM (inactive) | > 100 µM (inactive) | > 100 µM (inactive) | > 100 µM (inactive) | > 100 µM (inactive) | > 100 µM (inactive) | > 100 µM (inactive) | > 100 µM (inactive) | > 100 µM (inactive) | > 100 µM (inactive) | > 100 µM (inactive) | > 100 µM (inactive) | > 100 µM (inactive) | > 100 µM (inactive) | > 100 µM (inactive) | > 100 µM (inactive) | > 100 | > 100 µM (inactive) | > 100 µM (inactive)
C[C@@H](CC(=O)O)OC1OC(COC(=O)C(C)(C)C)C(OC(=O)C(C)(C)C)C(OC(=O)C(C)(C)C)C1OC(=O)C(C)(C)C (stereo partly drawn) | > 100 µM (inactive) | 41.2 µM (inactive) | 59.6 µM (inactive) | 72.3 µM (inactive) | 27.2 µM (inactive) | 69.7 µM (inactive) | 40 µM (inactive) | 64.7 µM (inactive) | 29.6 µM (inactive) | 73.6 µM (inactive) | 29 µM (inactive) | 45.3 µM (inactive) | 50.5 µM (inactive) | > 100 µM (inactive) | 26.5 µM (inactive) | 66.2 µM (inactive) | 32.4 | 71.9 µM (inactive) | 32.8 µM (inactive)
NC1=CN(CCCO)C2=N/C(=C\c3ccccc3)C(=O)N12 | > 100 µM (inactive) | > 100 µM (inactive) | > 100 µM (inactive) | > 100 µM (inactive) | > 100 µM (inactive) | > 100 µM (inactive) | > 100 µM (inactive) | > 100 µM (inactive) | > 100 µM (inactive) | > 100 µM (inactive) | > 100 µM (inactive) | > 100 µM (inactive) | > 100 µM (inactive) | > 100 µM (inactive) | > 100 µM (inactive) | > 100 µM (inactive) | > 100 | > 100 µM (inactive) | > 100 µM (inactive)
CC(C)(C)c1cc([N+](=O)[O-])cc([N+](=O)[O-])c1O [DINOTERB] | > 10 µM (inactive) | > 10 µM (inactive) | 9.59 µM (inactive) | > 10 µM (inactive) | > 10 µM (inactive) | > 10 µM (inactive) | > 10 µM (inactive) | > 10 µM (inactive) | 6.47 µM (inactive) | > 10 µM (inactive) | 7.98 µM (inactive) | > 10 µM (inactive) | > 10 µM (inactive) | > 10 µM (inactive) | > 10 µM (inactive) | > 10 µM (inactive) | > 10 | > 10 µM (inactive) | > 10 µM (inactive)
Clc1ncnc2c1nc(C#Cc1ccccc1)n2Cc1ccccc1 | 26.7 µM (inactive) | 23 µM (inactive) | 7.52 µM (inactive) | – | 16.6 µM (inactive) | 5.61 µM (inactive) | 17.6 µM (inactive) | 3.99 µM (inactive) | 32 µM (inactive) | > 100 µM (inactive) | 82.2 µM (inactive) | 16.3 µM (inactive) | > 100 µM (inactive) | 45.3 µM (inactive) | 3.78 µM (inactive) | 13.7 µM (inactive) | 4.81 | 30.5 µM (inactive) | 16.5 µM (inactive)
COc1ccc(N(CC(=O)O)N=O)cc1 | > 100 µM (inactive) | > 100 µM (inactive) | > 100 µM (inactive) | > 100 µM (inactive) | > 100 µM (inactive) | > 100 µM (inactive) | > 100 µM (inactive) | > 100 µM (inactive) | > 100 µM (inactive) | > 100 µM (inactive) | > 100 µM (inactive) | > 100 µM (inactive) | > 100 µM (inactive) | > 100 µM (inactive) | > 100 µM (inactive) | > 100 µM (inactive) | > 100 | > 100 µM (inactive) | > 100 µM (inactive)
Cc1ccc2c(c1)CC1(Cc3ccccc3C1=O)C2=O (stereo not drawn) | > 100 µM (inactive) | > 100 µM (inactive) | > 100 µM (inactive) | > 100 µM (inactive) | > 100 µM (inactive) | > 100 µM (inactive) | > 100 µM (inactive) | > 100 µM (inactive) | > 100 µM (inactive) | > 100 µM (inactive) | > 100 µM (inactive) | > 100 µM (inactive) | > 100 µM (inactive) | > 100 µM (inactive) | > 100 µM (inactive) | > 100 µM (inactive) | > 100 | > 100 µM (inactive) | > 100 µM (inactive)
FC(F)(F)c1ccc2nc(Sc3ccc4ccccc4c3)cnc2c1 | 62.7 µM (inactive) | 45 µM (inactive) | > 100 µM (inactive) | > 100 µM (inactive) | 41.9 µM (inactive) | 38.5 µM (inactive) | 25.2 µM (inactive) | – | 28.1 µM (inactive) | > 100 µM (inactive) | 73.1 µM (inactive) | 21.9 µM (inactive) | 65.2 µM (inactive) | 87.9 µM (inactive) | 24.4 µM (inactive) | 40.5 µM (inactive) | 44.7 | 64.9 µM (inactive) | 75 µM (inactive)
